Reference: US20160151461A1, “Cardio-Metabolic and Vascular Effects of GLP-1 Metabolites” (THE TRUSTEES OF THE UNIVERSITY OF PENNSYLVANIA, priority 2013, published 2016)
No end group written: not given here.

Assays:
[1] = in vivo; cited from earlier work
[2] = tested on: conscious, chronically instrumented dogs; experiment: rapid pacing induced stress (72 hour) in conscious, chronically instrumented dogs, hemodynamic measurements; assay type: in vivo; details: 72 hours rapid pacing stress, vs sham vehicle
Text: FIG. 7 illustrates characteristic instrumentation of conscious, chronically instrumented dogs studied in the laboratory. Under sterile surgical technique, the animals are instrumented as indicated and allowed to recover fully from their surgery. LV, aortic, and left atrial catheters were used to measure pressures. LV Konigsberg® transducer was used to measure isovolumic contractility and relaxation as measures of systolic and diastolic function. Ultrasonic dimension crystals were used to measure LV shortening and LV filling rates. Pacing leads were attached to the left atrial appendage. Transonics® flow probes were placed around the left circumflex coronary artery and right renal artery to measure coronary and renal blood flow.
Experiments were performed where 25 conscious, chronically instrumented dogs (FIG. 7) were subjected to a rapid pacing induced stress which recapitulates the hemodynamic perturbations experienced by patients with sudden onset of paroxysmal atrial fibrillation (FIG. 8). Dogs were studied before and daily during the 72 hour pacing stress. […] All measurements were made during intrinsic sinus rhythm 20-30 minutes after cessation of pacing. Hemodynamic measurements included: • LV systolic and diastolic pressures, mean arterial pressures, heart rate • Systolic function: LV contractility (systolic contractile function), LV fractional shortening • Diastolic function: LV isovolumic relaxation time constant, LV filling rate • Flows: systemic, coronary and renal blood flows

[3] = tested on: patients with advanced heart failure; details: 5 weeks of continuous infusion, NYHA Class IIIB and IV; cited from earlier work
[4] = tested on: conscious chronically instrumented dogs with pacing induced heart failure; experiment: pacing induced model of dilated cardiomyopathy in conscious chronically instrumented dogs (72 hours of rapid ventricular pacing); assay type: in vivo; details: after 72 hours of rapid ventricular pacing, vs Control
Experimental: In order to compare the vasoactive effects of different classes of incretins, experiments were designed to study the pacing induced model of dilated cardiomyopathy in conscious chronically instrumented dogs (FIG. 3). These animals were instrumented to examine the effects of equal concentrations of various classes of incretins on coronary blood flow and renal blood flow. All dogs underwent 72 hours of rapid ventricular pacing following which coronary flow responses were measured (Control). Rapid pacing was associated with 30-35% declines in coronary blood flow and renal blood flow respectively. […] This supports the notion that the native peptide and active metabolites have vasoactive as well as glucose-stimulatory properties. The renal vascular effects support the claims for use in heart failure complicated by renal failure (cardio-renal syndrome). The coronary vasodilator properties support the claims for the use in acute coronary syndromes and microvascular angina.

[5] = tested on: patients with mild heart failure; details: infused for 48 hours, NYHA Class II; cited from earlier work
[6] = tested on: advanced heart failure; details: cited from earlier work
[7] = tested on: large animal models of advanced heart failure; details: cited from earlier work
[8] = tested on: AMP kinase; experiment: isolated isovolumic rat heart, activation of AMP kinase; details: for AMPK activation in presence of EXE (inhibits activation of the GLP-1 receptor): with EXE; for AMPK activation in presence of pertussus toxin (PTX): with PTX (Gi); for AMPK activation in presence of STO609 (CAM kinase): with STO609
Text: It is largely unknown how GLP-1 stimulates glucose uptake independent of insulin. A candidate mechanism involves the activation of AMP kinase which causes GLUT translocation and glucose uptake independent of insulin. The isolated isovolumic rat heart was studied as a model in which myocardial specific responses can be observed (FIG. 4).

[9] = tested on: myocardium; donor organs; experiment: myocardial glucose uptake and preconditioning of donor organs against ischemic injury (summary statement)
[10] = tested on: normal, conscious, chronically instrumented dogs; experiment: hyperglycemic clamp studies in normal, conscious, chronically instrumented dogs; assay type: in vivo
Experimental: To determine the effect of GLP-1 (32-36) on coronary blood flow, hyperglycemic clamp studies were conducted in normal, conscious, chronically instrumented dogs (n=3), in which plasma glucose was raised to 180 mg/dl by continuous infusion of glucose (FIG. 1). The plasma glucose concentration was monitored continuously as was plasma insulin response. In the control studies, the 5 dogs underwent the 3 hour hyperglycemic clamp. On a separate occasion, the same animals underwent a 3 hour hyperglycemic clamp in which GLP-1 (32-36) was infused beginning in the second hour.
Myocardial glucose uptake is calculated as the product of the difference in the arterial-coronary sinus glucose content and the average coronary blood flow. The increase in myocardial glucose uptake is in excess of that attributable to the increase in coronary blood flow alone.

Glucagon-like peptide-1 [GLP-1]
active half-life time [1]: 1 to 2 min | half-life time in blood [1]: ≤ 5 min

His-Ala-Glu-Gly-Thr-Phe-Thr-Ser-Asp-Val-Ser-Ser-Tyr-Leu-Glu-Gly-Gln-Ala-Ala-Lys-Glu-Phe-Ile-Ala-Trp-Leu-Val-Lys-Gly-Arg [GLP-1 (7-36) amide]
LV systolic and diastolic function [2]: mitigated the declines | coronary blood flow [2]: preserved | renal blood flow [2]: preserved | systemic vascular resistance [2]: mitigated the declines in LV systolic and diastolic function and the rise | functional outcomes [3]: improved functional outcomes | coronary blood flow [4]: preserved coronary and renal blood flow to a greater extent than seen in control | renal blood flow [4]: preserved coronary and renal blood flow to a greater extent than seen in control | benefit [5]: no benefit | elevated levels of plasma glucagon [6]: suppresses | insulin action [6]: augments | expression of mitochondrial uncoupling protein 3 (UCP-3) and mitochondrial cytochrome oxidase (Complex IV) ([7]; in vivo, iv): increased | mitochondrial reactive oxygen species (ROS) generation ([7]; in vivo): decreased | cell survival pathways (ras dependent activation of p38 MAP kinase, induction of NOS2) ([7]; independent of insulin signaling pathways): activates

Glu-Gly-Thr-Phe-Thr-Ser-Asp-Val-Ser-Ser-Tyr-Leu-Glu-Gly-Gln-Ala-Ala-Lys-Glu-Phe-Ile-Ala-Trp-Leu-Val-Lys-Gly-Arg (EGTFTSDVSSYLEGQAAKEFIAWLVKGR-NH2) [GLP-1 (9-36) amide]
LV systolic and diastolic function [2]: mitigated the declines | coronary blood flow [2]: preserved | renal blood flow [2]: preserved | systemic vascular resistance [2]: mitigated the declines in LV systolic and diastolic function and the rise | phosphorylation and activation of AMP kinase ([8]; 60 minutes of perfusion): increased the phosphorylation and the activation of AMP kinase | AMPK activation in presence of EXE (inhibits activation of the GLP-1 receptor) [8]: GLP-1 receptor independent | AMPK activation in presence of EXE (inhibits activation of the GLP-1 receptor) ([8]; listed as GLP-1 (9-36)): not blocked | AMPK activation under neuroendopeptidase inhibition (NEPI) ([8]; with NEPI): abolished | AMPK activation in presence of pertussus toxin (PTX) [8]: pertussus toxin (Gi) and Ca-Calmodulin dependent | AMPK activation in presence of pertussus toxin (PTX) ([8]; listed as GLP-1 (9-36)): blocked by pertussus toxin | AMPK activation in presence of STO609 (CAM kinase) [8]: pertussus toxin (Gi) and Ca-Calmodulin dependent | AMPK activation in presence of STO609 (CAM kinase) ([8]; listed as GLP-1 (9-36)): blocked by STO609 | preconditioning donor organs against ischemic injury [9]: active | stimulating glucose uptake into myocardium in a non-insulin dependent fashion [9]: active | coronary blood flow [4]: preserved coronary and renal blood flow to a greater extent than seen in control | renal blood flow [4]: preserved coronary and renal blood flow to a greater extent than seen in control

Leu-Val-Lys-Gly-Arg (LVKGR-NH2) [GLP-1 (32-36) amide]
preconditioning donor organs against ischemic injury [9]: active | stimulating glucose uptake into myocardium in a non-insulin dependent fashion [9]: active | increase in coronary blood flow ([10]; 3 hour hyperglycemic clamp, plasma glucose 180 mg/dl, peptide infused beginning in the second hour, vs control clamp): significantly greater increase | increase in myocardial glucose uptake ([10]; hyperglycemic clamp, matched hyperinsulinemia, vs control): significantly greater increase
